# From patent publication US10821115B2, “Compounds that inhibit Mcl-1 protein” (priority 2017, dated 2020)
# Like-named read-outs stand apart in the source and are kept apart here.
# Tests used:
# [1] = target: recombinant human Mcl-1 (residues 171-327) / Bim interaction (Homo sapiens (Human), UniProt Q07820); experiment: biochemical; assay type: binding; details: read-out: Mcl-1 HTRF IC50
# [2] = tested on: human multiple myeloma cell line, OPM-2; experiment: Cell viability assay (OPM-2 10 FBS), CellTiter-Glo; assay type: cell-based
# In short: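 IC50 values come from 4-parameter logistic fits of luminescence signals reflecting cell viability. Treatment lasted 16 h at 37 °C in complete medium with 10% FBS, starting from 3000 cells/well.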
# [3] = 0.1 nM Mcl-1(171-327), 0.05 nM biotin-Bim (51-76)
# [4] = Homo sapiens, OPM-2, 16 h, read-out: OPM-2 10% FBS IC50 IP, OPM-2 cells, 10% FBS, 16 h incubation
# [5] = Homo sapiens, OPM-2, 16 h, read-out: OPM-2 10% FBS IC50 IP, OPM-2 cells, 10% FBS, 16 h, CellTiter-Glo
# [6] = TR-FRET, Mcl-1(171-327) / biotin-Bim (51-76)
# [7] = read-out: OPM-2 10% FBS IC50 IP, OPM-2 cells, 10% FBS, 16 h, CellTiter-Glo
# recombinant human Mcl-1 (residues 171-327) / Bim interaction, sequence (Q07820 171-327): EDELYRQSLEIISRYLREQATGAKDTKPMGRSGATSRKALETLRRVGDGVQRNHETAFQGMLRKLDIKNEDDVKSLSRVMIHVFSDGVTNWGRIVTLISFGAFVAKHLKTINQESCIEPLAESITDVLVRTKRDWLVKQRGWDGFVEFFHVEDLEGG
Structure (SMILES),"IC50 [2, 5] [nM]","IC50 [1, 6] [nM]",further results
"CO[C@]1(CN2CCN3C(=O)[C@@H](C)OC[C@@H]3C2)/C=C/C[C@H](C)[C@@H](C)S(=O)(=O)NC(=O)c2ccc3c(c2)N(C[C@@H]2CC[C@H]21)C[C@@]1(CCCc2cc(Cl)ccc21)CO3 [Example 144, (1S,3′R,6′R,7′R,8′E,11′S,12′R)-6-chloro-7′-methoxy-11′,12′-dimethyl-7′-(((3R,9aS)-3-methyl-4-oxohexahydropyrazino[2,1-c][1,4]oxazin-8(1H)-yl)methyl)-3,4-dihydro-2H,15′H-spiro[naphthalene-1,22′-[20]oxa[13]thia[1,14]diazatetracyclo [14.7.2.0~3,6~.0~19,24~]pentacosa[8,16,18,24]tetraen]-15′-one 13′,13′-dioxide]",,,"IC50 [1, 3]: 0.271 nM; IC50 [2, 4]: 163 nM"
"CO[C@]1(CN2CCN3CCOC[C@@H]3C2)/C=C/C[C@H](C)[C@@H](CCO)S(=O)(=O)NC(=O)c2ccc3c(c2)N(C[C@@H]2CC[C@H]21)C[C@@]1(CCCc2cc(Cl)ccc21)CO3 [Example 357, (1S,3′R,6′R,7′R,8′E,11′S,12′R)-6-chloro-7′-((9aS)-hexahydropyrazino[2,1-c][1,4]oxazin-8(1H)-ylmethyl)-12′-(2-hydroxyethyl)-7′-methoxy-11′-methyl-3 ,4-dihydro-2H,15′H-spiro[naphthalene-1,22′-[20]oxa[13]thia[1,14]diazatetracyclo [14.7.2.0~3,6~.0~19,24~]pentacosa[8,16,18,24]tetraen]-15′-one 13′,13′-dioxide]",,,"IC50 [1, 3]: 0.067 nM; IC50 [2, 4]: 118 nM"
"CO[C@@]1(C)/C=C/C[C@H](C)[C@@H](C)S(=O)(=O)NC(=O)c2ccc3c(c2)N(C[C@@H]2CC[C@H]21)C[C@@]1(CCCc2cc(Cl)ccc21)CO3 [Example 100014, (1S,3′R,6′R,7′S,8′E, 11′S, 12′R)-6-chloro-7′-methoxy-7′,11′,12′-trimethyl-3,4-dihydro-2H,15′H-spiro[naphthalene-1,22′-[20]oxa[13]thia[1,14]diazatetracyclo[14.7.2.0-3,6˜.0˜19,24˜]pentacosa[8,16,18,24]tetraen]-15′-one 13′,13′-dioxide]",330,,IC50 [1]: 0.228 nM
"C[C@@H]1[C@@H](C)C/C=C/[C@@](O)(CC(=O)O)[C@@H]2CC[C@H]2CN2C[C@@]3(CCCc4cc(Cl)ccc43)COc3ccc(cc32)C(=O)NS1(=O)=O [Example 100101, ((1S,3′R,6′R,7′S,8′E,11′S,12′R)-6-chloro-7′-hydroxy-11′,12′-dimethyl-13′,13′-dioxido-15′-oxo-3,4-dihydro-2H-spiro[naphthalene-1,22′-[20]oxa[13]thia[1,14]diazatetracyclo [14.7.2.0~3,6~.0~19,24~]pentacosa[8,16,18,24]tetraen]-7′-yl)acetic acid]",2600,0.062,
"CO[C@]1(CCN(C)C)/C=C/C[C@H](C)[C@@H](C)S(=O)(=O)NC(=O)c2ccc3c(c2)N(C[C@@H]2CC[C@H]21)C[C@@]1(CCCc2cc(Cl)ccc21)CO3 [Example 100381, (1S,3′R,6′R,7′R,8′E,11′S,12′R)-6-chloro-7′-(2-(dimethylamino)ethyl)-7′-methoxy-11′,12′-dimethyl-3,4-dihydro-2H,15′H-spiro[naphthalene-1,22′-[20]oxa[13]thia[1,14]diazatetracyclo [14.7.2.0~3,6~.0~19,24~]pentacosa[8,16,18,24]tetraen]-15′-one 13′,13′-dioxide]",2910,0.328,
"CO[C@]1(CCN2CCN3CCCC[C@@H]3C2)/C=C/C[C@H](C)[C@@H](C)S(=O)(=O)NC(=O)c2ccc3c(c2)N(C[C@@H]2CC[C@H]21)C[C@@]1(CCCc2cc(Cl)ccc21)CO3 [Example 100591, (1S,3′R,6′R,7′R,8′E,11′S,12′R)-6-chloro-7′-methoxy-11′,12′-dimethyl-7′-(2-((9aR)-octahydro-2H-pyrido[1,2-a]pyrazin-2-yl)ethyl)-3,4-dihydro-2H,15′H-spiro[naphthalene-1,22′-[20]oxa[13]thia[1,14]diazatetracyclo [14.7.2.0~3,6~.0~19,24~]pentacosa[8,16,18,24]tetraen]-15′-one 13′,13′-dioxide]",60,0.075,
"CO[C@]1(C[C@H](O)C(C)C)/C=C/C[C@H](C)[C@@H](C)S(=O)(=O)NC(=O)c2ccc3c(c2)N(C[C@@H]2CC[C@H]21)C[C@@]1(CCCc2cc(Cl)ccc21)CO3 [Example 100359, (1S,3′R,6′R,7′R,8′E,11′S,12′R)-6-chloro-7′-((2S)-2-hydroxy-3-methylbutyl)-7′-methoxy-11′,12′-dimethyl-3,4-dihydro-2H,15′H-spiro[naphthalene-1,22′-[20]oxa[13]thia[1,14]diazatetracyclo [14.7.2.0~3,6~.0~19,24~]pentacosa[8,16,18,24]tetraen]-15′-one 13′,13′-dioxide]",,1.2,"IC50 [2, 7]: 1540 nM"
"C[C@@H]1[C@@H](C)C/C=C/[C@@](O)(c2cnccn2)[C@@H]2CC[C@H]2CN2C[C@@]3(CCCc4cc(Cl)ccc43)COc3ccc(cc32)C(=O)NS1(=O)=O [Example 100357, (1S,3′R,6′R,7′S,8′E,11′S,12′R)-6-chloro-7′-hydroxy-11′,12′-dimethyl-7′-(2-pyrazinyl)-3,4-dihydro-2H,15′H-spiro[naphthalene-1,22′-[20]oxa[13]thia[1,14]diazatetracyclo [14.7.2.0~3,6~.0~19,24~]pentacosa[8,16,18,24]tetraen]-15′-one 13′,13′-dioxide]",399,0.224,
"C[C@@H]1[C@@H](C)C/C=C/[C@@](C)(OCCN2CCOCC2)[C@@H]2CC[C@H]2CN2C[C@@]3(CCCc4cc(Cl)ccc43)COc3ccc(cc32)C(=O)NS1(=O)=O [Example 100467, (1S,3′R,6′R,7′R,8′E,11′S,12′R)-6-chloro-7′,11′,12′-trimethyl-7′-(2-(4-morpholinyl)ethoxy)-3,4-dihydro-2H,15′H-spiro[naphthalene-1,22′-[20]oxa[13]thia[1,14]diazatetracyclo [14.7.2.0~3,6~.0~19,24~]pentacosa[8,16,18,24]tetraen]-15′-one 13′,13′-dioxide]",516,0.303,
"CCO[C@@]1(CN2CCC3(CC2)COC3)/C=C/C[C@H](C)[C@@H](C)S(=O)(=O)NC(=O)c2ccc3c(c2)N(C[C@@H]2CC[C@H]21)C[C@@]1(CCCc2cc(Cl)ccc21)CO3 [Example 109, (1S,3′R,6′R,7′S,8′E,11′S,12′R)-6-chloro-7′-ethoxy-11′,12′-dimethyl-7′-(2-oxa-7-azaspiro[3,5]non-7-ylmethyl)-3,4-dihydro-2H,15′H-spiro[naphthalene-1,22′-[20]oxa[13]thia[1,14]diazatetracyclo [14.7.2.0~3,6~.0~19,24~]pentacosa[8,16,18,24]tetraen]-15′-one 13′,13′-dioxide]",,,"IC50 [1, 3]: 1.04 nM; IC50 [2, 4]: 916 nM"
"CC(C)OC[C@]1(O)/C=C/C[C@H](C)[C@@H](C)S(=O)(=O)NC(=O)c2ccc3c(c2)N(C[C@@H]2CC[C@H]21)C[C@@]1(CCCc2cc(Cl)ccc21)CO3 [Example 100442, (1S,3′R,6′R,7′S,8′E,11′S,12′R)-6-chloro-7′-hydroxy-11′,12′-dimethyl-7′-((2-propanyloxy)methyl)-3,4-dihydro-2H,15′H-spiro[naphthalene-1,22′-[20]oxa[13]thia[1,14]diazatetracyclo [14.7.2.0~3,6~.0~19,24~]pentacosa[8,16,18,24]tetraen]-15′-one 13′,13′-dioxide]",3870,0.921,
"C[C@@H]1[C@@H](C)C/C=C/[C@@](O)([C@@H]2CCN(C)C2=O)[C@@H]2CC[C@H]2CN2C[C@@]3(CCCc4cc(Cl)ccc43)COc3ccc(cc32)C(=O)NS1(=O)=O [Example 100137, (1S,3′R,6′R,7′S,8′E,11′S,12′R)-6-chloro-7′-hydroxy-11′,12′-dimethyl-7′-((3S)-1-methyl-2-oxo-3-pyrrolidinyl)-3,4-dihydro-2H,15′H-spiro[naphthalene-1,22′-[20]oxa[13]thia[1,14]diazatetracyclo [14.7.2.0~3,6~.0~19,24~]pentacosa[8,16,18,24]tetraen]-15′-one 13′,13′-dioxide]",,0.365,"IC50 [2, 7]: 2820 nM"
"CO[C@]1(CN2CCN(C(C)C)[C@H](C)C2)/C=C/C[C@H](C)[C@@H](C)S(=O)(=O)NC(=O)c2ccc3c(c2)N(C[C@@H]2CC[C@H]21)C[C@@]1(CCCc2cc(Cl)ccc21)CO3 [Example 8, (1 S,3′R,6′R,7′R,8′E, 11′S,12′R)-6-CHLORO-7′-METHOXY-11′,12′-DIMETHYL-7′-(((3R)-3-METHYL-4-(1-METHYLETHYL)-1-PIPERAZINYL)METHYL)-3,4-DIHYDRO-2H, 15′H-SPIRO [NAPHTHALENE-1,22′-[20]OXA[13]THIA[1,14]DIAZATETRACYCLO[14.7.2.0-3,6˜.0˜19,24˜]PENT ACOSA[8,16,18,24]TETRAEN]-15′-ONE 13′,13′-DIOXIDE]",,,"IC50 [1, 3]: 0.053 nM; IC50 ([2]; read-out: OPM-2 10% FBS IC50 IP, OPM-2 cells, 10% FBS, 16 h incubation): 25 nM"
"C[C@@H]1[C@@H](C)C/C=C/C(O)([C@H]2OCCN(C)C2=O)[C@@H]2CC[C@H]2CN2C[C@@]3(CCCc4cc(Cl)ccc43)COc3ccc(cc32)C(=O)NS1(=O)=O (single isomer, unassigned) [Example 100019]",58,0.182,
